Assay results from ChEMBL document CHEMBL5380800, “Discovery of Small-Molecule Autophagy Inhibitors by Disrupting the Protein-Protein Interactions Involving Autophagy-Related 5” (J Med Chem, 2023).
Activity calls are given as the source filed them. No cut-off for these calls is given here.

Experiments:
COS-7 [1] = experiment: Downregulation of LC3-II protein level in African green monkey COS-7 cells at 1.25 to 20 uM incubated for 6 hrs by Western blot analysis; type: functional, cell-based; conditions: Chlorocebus aethiops, dose 1.25-20 µM
[2] = Inhibition of ATG5-TECAIR (unknown origin) protein protein interaction expressed in Escherichia coli BL21 (DE3) by HTRF method; parameters: species or system Homo sapiens; conditions: read-out: IC50
THP-1 = experiment: Downregulation of LC3-II protein level in human THP-1 cells at 5 to 40 uM incubated for 6 hrs in presence of rapamycin/chloroquine by Western blot analysis; type: functional, cell-based; conditions: dose 5-40 µM
U-937 = experiment: Downregulation of LC3-II protein level in human U-937 cells at 5 to 40 uM incubated for 6 hrs in presence of rapamycin/chloroquine by Western blot analysis; type: functional, cell-based; conditions: dose 5-40 µM
[3] = Inhibition of ATG5-ATG16L1 (unknown origin) protein protein interaction expressed in Escherichia coli BL21 (DE3) by HTRF method; parameters: species or system Homo sapiens; conditions: read-out: IC50
COS-7 [4] = experiment: Inhibition of autophagy in African green monkey COS-7 cells at 20 uM by flow cytometry analysis relative to control; type: functional; conditions: Chlorocebus aethiops
COS-7 [5] = experiment: Inhibition of autophagy in African green monkey COS-7 cells assessed as effect on LC3 level by flow cytometry analysis; type: toxicity, cell-based; conditions: chlorocebus aethiops, cos-7, 40 µM

O=C(O)c1ccc(N2C(=O)/C(=C/c3ccc(-c4ccc([N+](=O)[O-])cc4)o3)C=C2c2ccccc2)cc1
Activity (COS-7 [1]): Active
IC50 [2]: 1700 nM
Activity (THP-1): Active
Activity (U-937): Active
IC50 [3]: 1100 nM
inhibition at 20 µM (COS-7 [4]): 7.16%
inhibition (INH) (COS-7 [5]): Dose-Dependent Effect
